Reference: US9321764B2, “Dihydro-pyrrolopyridinone inhibitors” (AbbVie Inc., priority 2013, dated 2016)

Legend:
[1] = target: T1, BRD4 (BDI_K57-E168) (Homo sapiens, UniProt O60885); assay: TR-FRET bromodomain binding assay, first bromodomain of BRD4; details: His-tagged BD1, 100 nM Alexa647 probe; TR-FRET protocol A-E given per row
T1 construct: BD1: amino acids K57-E168; made in house
Experimental: (§1) A time-resolved fluorescence resonance energy transfer (TR-FRET) assay was used to determine the affinities of compounds of the Examples listed in Table 1 for each bromodomain of BRD4. His-tagged first (BD1: amino acids K57-E168) and second (BD2: amino acids E352-E168) bromodomains of BRD4 were expressed and purified. An Alexa647-labeled BET-inhibitor was used as the fluorescent probe in the assay.
(§2) Compound dilution series were prepared in DMSO via an approximately 3-fold serial dilution from one of the following:
Assay method A: 250 μM-4.2 nM
Assay method B: 0.47 mM to 7.8 nM
Assay method C: 500 μM-8.5 nM
(§3) Assay method D: 2.5 mM-800 nM
Assay method E: 0.047 mM to 0.78 nM or 5-fold serial dilution from Assay method D
For Assay methods A, C, and D: Compounds were then diluted 6:100 in assay buffer (20 mM Sodium Phosphate, pH 6.0, 50 mM NaCl, 1 mM Ethylenediaminetetraacetic acid, 0.01% Triton X-100, 1 mM DL-Dithiothreitol) to yield 3× working solutions. Six microliters (μL) of the working solution was then transferred to white, low-volume assay plates (Costar #3673). A 1.5× assay mixture containing His-tagged bromodomain, Europium-conjugated anti-His antibody (Invitrogen PV5596) and the Alexa-647-conjugated probe molecule was also prepared. Twelve μL of this solution were added to the assay plate to reach a final volume of 18 μL.
For Assay methods B and E: Compound dilutions were added directly into white, low-volume assay plates (Perkin Elmer Proxiplate 384 Plus #6008280) using a Labcyte Echo in conjunction with Labcyte Access and Thermo Multidrop CombinL robotics. Compounds were then suspended in eight microliters (μL) of assay buffer (20 mM Sodium Phosphate, pH 6.0, 50 mM NaCl, 1 mM Ethylenediaminetetraacetic acid disodium salt dihydrate, 0.01% Triton X-100, 1 mM DL-Dithiothreitol) containing His-tagged bromodomain, Europium-conjugated anti-His antibody (Invitrogen PV5596) and Alexa-647-conjugated probe.
The final concentration of 1× assay mixture for assay methods A, B, C, D, and E contains 2% DMSO, 8 nM His-tagged bromodomain, 1 nM Europium-conjugated anti-His-tag antibody and 100 nM or 30 nM probe (for BDI or BDII, respectively) and compound concentration in the range of: 5 μM-85 pM for method A, 9.19 μM 150 pM for method B, 10 μM-169 pM for method C, 50 μM-16 nM for method D, and 0.92 μM-15 pM for method E.
After a one-hour equilibration at room temperature, TR-FRET ratios were determined using an Envision multilabel plate reader (Ex 340, Em 495/520).
TR-FRET data were normalized to the means of 24 no-compound controls (“high”) and 8 controls containing 1 μM un-labeled probe (“low”). Percent inhibition was plotted as a function of compound concentration and the data were fit with the 4 parameter logistic equation to obtain IC50s Inhibition constants (Ki) were calculated from the IC50s, probe Kd and probe concentration. Typical Z′ values were between 0.65 and 0.75. The minimum significant ratio was determined to evaluate assay reproducibility (Eastwood et al., (2006) J Biomol Screen, 11: 253-261). The MSR was determined to be 2.03 for BDI and 1.93 for BDII, and a moving MSR (last six run MSR overtime) for both BDI and BDII was typically <3.

[2] = target: T2, BRD4 (BDII_E352-M457) (Homo sapiens, UniProt O60885); assay: TR-FRET bromodomain binding assay, second bromodomain of BRD4; details: His-tagged BD2, 30 nM Alexa647 probe; TR-FRET protocol A-E given per row
T2 construct: proliferation; Protocol; made in house
Experimental: as §1, §2, §3
For Assay methods A, C, and D: Compounds were then diluted 6:100 in assay buffer (20 mM Sodium Phosphate, pH 6.0, 50 mM NaCl, 1 mM Ethylenediaminetetraacetic acid, 0.01% Triton X-100, 1 mM DL-Dithiothreitol) to yield 3× working solutions. […] Twelve μL of this solution were added to the assay plate to reach a final volume of 18 μL.
TR-FRET data were normalized to the means of 24 no-compound controls (“high”) and 8 controls containing 1 μM un-labeled probe (“low”). Percent inhibition was plotted as a function of compound concentration and the data were fit with the 4 parameter logistic equation to obtain IC50s Inhibition constants (Ki) were calculated from the IC50s, probe Kd and probe concentration. Typical Z′ values were between 0.65 and 0.75.

Row | Ki [1] [nM] | Ki [2] [nM] | SMILES
1 | 6.2 | 13 | Cn1cc(-c2cc(NS(C)(=O)=O)ccc2Oc2ccc(F)cc2F)c2cc[nH]c(=O)c21 [Example 2, N-[4-(2,4-difluorophenoxy)-3-(1-methyl-7-oxo-6,7-dihydro-1H-pyrrolo[2,3-c]pyridin-3-yl)phenyl]methanesulfonamide]
2 | 5.9 | 7.2 | CCS(=O)(=O)Nc1ccc(Oc2ccc(F)cc2F)c(-c2cn(C)c3c(=O)[nH]ccc23)c1 [Example 4, N-[4-(2,4-difluorophenoxy)-3-(1-methyl-7-oxo-6,7-dihydro-1H-pyrrolo[2,3-c]pyridin-3-yl)phenyl]ethanesulfonamide]
3 | 684 | 1170 | Cn1cc(-c2cc(NS(C)(=O)=O)c(Oc3ccc(F)cc3F)cc2F)c2cc[nH]c(=O)c21 [Example 12, N-[2-(2,4-difluorophenoxy)-4-fluoro-5-(1-methyl-7-oxo-6,7-dihydro-1H-pyrrolo[2,3-c]pyridin-3-yl)phenyl]methanesulfonamide]
4 | 3.3 | 12 | CCS(=O)(=O)Nc1ccc(Oc2ccc(F)cc2)c(-c2cn(C)c3c(=O)[nH]ccc23)c1 [Example 15, N-[4-(4-fluorophenoxy)-3-(1-methyl-7-oxo-6,7-dihydro-1H-pyrrolo[2,3-c]pyridin-3-yl)phenyl]ethanesulfonamide]
5 | 12 | 21 | Cn1cc(-c2cc(S(C)(=O)=O)ccc2Oc2ccccc2)c2cc[nH]c(=O)c21 [Example 18, 1-methyl-3-[5-(methylsulfonyl)-2-phenoxyphenyl]-1,6-dihydro-7H-pyrrolo[2,3-c]pyridin-7-one]
6 | 438 | 721 | COc1ccc(S(C)(=O)=O)cc1-c1cn(C)c2c(=O)[nH]ccc12 [Example 21, 3-[2-methoxy-5-(methylsulfonyl)phenyl]-1-methyl-1,6-dihydro-7H-pyrrolo[2,3-c]pyridin-7-one]
7 | 42 | 111 | Cn1cc(-c2cc(S(C)(=O)=O)ccc2OCCC2CCCC2)c2cc[nH]c(=O)c21 [Example 35, 3-[2-(2-cyclopentylethoxy)-5-(methylsulfonyl)phenyl]-1-methyl-1,6-dihydro-7H-pyrrolo[2,3-c]pyridin-7-one]
8 | 146 | 515 | Cn1cc(-c2cc(S(C)(=O)=O)ccc2OCCC2CCCCC2)c2cc[nH]c(=O)c21 [Example 36, 3-[2-(2-cyclohexylethoxy)-5-(methylsulfonyl)phenyl]-1-methyl-1,6-dihydro-7H-pyrrolo[2,3-c]pyridin-7-one]
9 | 52 | 99 | Cn1cc(-c2cc(S(C)(=O)=O)ccc2OCCc2ccccc2)c2cc[nH]c(=O)c21 [Example 37, 1-methyl-3-[5-(methylsulfonyl)-2-(2-phenylethoxy)phenyl]-1,6-dihydro-7H-pyrrolo[2,3-c]pyridin-7-one]
10 | 90 | 435 | Cn1cc(-c2cc(S(C)(=O)=O)ccc2OC2Cc3ccccc3C2)c2cc[nH]c(=O)c21 [Example 38, 3-[2-(2,3-dihydro-1H-inden-2-yloxy)-5-(methylsulfonyl)phenyl]-1-methyl-1,6-dihydro-7H-pyrrolo[2,3-c]pyridin-7-one]
11 | 63 | 51 | Cn1cc(-c2cc(S(C)(=O)=O)ccc2OCCc2cccs2)c2cc[nH]c(=O)c21 [Example 39, 1-methyl-3-{5-(methylsulfonyl)-2-[2-(thiophen-2-yl)ethoxy]phenyl}-1,6-dihydro-7H-pyrrolo[2,3-c]pyridin-7-one]
12 | 2580 | 2540 | Cn1ccc2c(-c3cc(S(C)(=O)=O)ccc3OCC3CC3(F)F)cn(C)c2c1=O (stereo not shown) [Example 43, 3-{2-[(2,2-difluorocyclopropyl)methoxy]-5-(methylsulfonyl)phenyl}-1,6-dimethyl-1,6-dihydro-7H-pyrrolo[2,3-c]pyridin-7-one]
13 | 33 | 124 | Cn1cc(-c2cc(S(C)(=O)=O)ccc2NCC2CCCCC2)c2cc[nH]c(=O)c21 [Example 47, 3-{2-[(cyclohexylmethyl)amino]-5-(methylsulfonyl)phenyl}-1-methyl-1,6-dihydro-7H-pyrrolo[2,3-c]pyridin-7-one]
14 | 1710 | > 4440 | Cc1cccc(OCC2CC2)c1-c1cn(C)c2c(=O)[nH]ccc12 [Example 50, 3-[2-(cyclopropylmethoxy)-6-methylphenyl]-1-methyl-1,6-dihydro-7H-pyrrolo[2,3-c]pyridin-7-one]
15 | 606 | 600 | CCS(=O)(=O)c1cnc(Oc2ccc(F)cc2F)c(-c2cn(C)c3c(=O)[nH]ccc23)c1 [Example 59, 3-[2-(2,4-difluorophenoxy)-5-(ethylsulfonyl)pyridin-3-yl]-1-methyl-1,6-dihydro-7H-pyrrolo[2,3-c]pyridin-7-one]
16 | 357 | 291 | Cn1cc(-c2cc(S(C)(=O)=O)ccc2Oc2ccc(C(C)(C)C)cc2)c2cc[nH]c(=O)c21 [Example 62, 3-[2-(4-tert-butylphenoxy)-5-(methylsulfonyl)phenyl]-1-methyl-1,6-dihydro-7H-pyrrolo[2,3-c]pyridin-7-one]
17 | 416 | 2640 | Cn1cc(-c2cc(S(C)(=O)=O)ccc2OCCC23CC4CC(CC(C4)C2)C3)c2cc[nH]c(=O)c21 [Example 65]
18 | 219 | 741 | Cn1cc(-c2cc(S(C)(=O)=O)ccc2OCCCC2CCCC2)c2cc[nH]c(=O)c21 [Example 66, 3-[2-(3-cyclopentylpropoxy)-5-(methylsulfonyl)phenyl]-1-methyl-1,6-dihydro-7H-pyrrolo[2,3-c]pyridin-7-one]
19 | 773 | 2290 | Cn1cc(-c2cc(S(C)(=O)=O)ccc2NCC(F)(F)F)c2cc[nH]c(=O)c21 [Example 69, 1-methyl-3-{5-(methylsulfonyl)-2-[(2,2,2-trifluoroethyl)amino]phenyl}-1,6-dihydro-7H-pyrrolo[2,3-c]pyridin-7-one]
20 | 613 | 1660 | Cn1cc(-c2cc(S(C)(=O)=O)ccc2NCC(F)(F)C(F)(F)C(F)(F)F)c2cc[nH]c(=O)c21 [Example 70, 3-{2-[(2,2,3,3,4,4,4-heptafluorobutyl)amino]-5-(methylsulfonyl)phenyl}-1-methyl-1,6-dihydro-7H-pyrrolo[2,3-c]pyridin-7-one]
21 | 492 | 967 | Cn1cc(-c2cc(S(C)(=O)=O)ccc2NCCC2CCCC2)c2cc[nH]c(=O)c21 [Example 72, 3-{2-[(2-cyclopentylethyl)amino]-5-(methylsulfonyl)phenyl}-1-methyl-1,6-dihydro-7H-pyrrolo[2,3-c]pyridin-7-one]
22 | > 2380 | 388 | CCS(=O)(=O)c1ccc(Oc2ccncc2)c(-c2cn(C)c3c(=O)[nH]ccc23)c1 [Example 74, 3-[5-(ethylsulfonyl)-2-(pyridin-4-yloxy)phenyl]-1-methyl-1,6-dihydro-7H-pyrrolo[2,3-c]pyridin-7-one]
23 | 131 | 42 | CCS(=O)(=O)c1ccc(Oc2cnc(C)cc2C)c(-c2cn(C)c3c(=O)[nH]ccc23)c1 [Example 75, 3-{2[(4,6-dimethylpyridin-3-yl)oxy]-5-(ethylsulfonyl)phenyl}-1-methyl-1,6-dihydro-7H-pyrrolo[2,3-c]pyridin-7-one]
